Consider 21 molecules from patent US9221816B2, “2-oxo-2,3-dihydro-indoles for the treatment of CNS disorders” (Hoffmann-La Roche Inc., priority 2012, dated 2015).

The test system of assay [1] is L-687,414-induced hyperlocomotion. Description: L-687,414-induced hyperlocomotion (Digiscan locomotor activity). It counts as in vivo, mouse. As to conditions: mice; for ID50 po: p.o. 15 min before s.c. 50 mg/kg L-687,414, dose producing 50% inhibition of hyperlocomotion; for Inhibition, ip: dose ip 30, at the same time as s.c. 50 mg/kg L-687,414, % inhibition of horizontal activity. As for the experimental part:
The authors described that hyperlocomotion induced by L-687,414 was inhibited by a series of known antipsychotic drugs. […] These findings predict antipsychotic activity for the present compounds, making them useful for the treatment of schizophrenia and other disorders as described above.
The described compounds of formula I and I-1 reduce L-687,414-induced hyperlocomotion. This was assessed by using a computerized Digiscan 16 Animal Activity Monitoring System (Omnitech Electronics, Columbus, Ohio) to quantify locomotor activity. Animals were kept under a 12 h light/dark cycle and experiments were performed during the light period. Each activity monitoring chamber consisted of a Plexiglas box (41×41×28 cm; W×L×H) with sawdust bedding on the floor surrounded by invisible horizontal and vertical infrared sensor beams. The test boxes were divided by a Plexiglas cross providing each mouse with 20×20 cm of moving space. Cages were connected to a Digiscan Analyzer linked to a computer that constantly collected the beam status information. Records of photocell beam interruptions for individual animals were taken every 5 min over the duration of the experimental session and the sum of the first 6 periods was used as the final parameter. Compounds were administered either p.o. 15 min before a s.c. injection of 50 mg/kg of L-687,414, or i.p. at the same time as a s.c. injection of 50 mg/kg of L-687,414. Mice were then transferred from their home cage to the recording chambers for a 15-min habituation phase allowing free exploration of the new environment. Horizontal activity was then recorded for a 30-min time period. The % inhibition of L-687,414-induced hyperlocomotion was calculated according to the equation: ((Veh+L-687,414 horizontal activity−drug+L-687,414 horizontal activity)/Veh+L-687,414 horizontal activity)×100
ID50 values, defined as doses of each compound producing 50% inhibition of L-687,414-induced hyperlocomotion, were calculated by linear regression analysis of a dose-response data using an Excel-based computer-fitting program.
As data was not presupposed to be normally distributed, groups treated with test compounds were statistically compared with the control (vehicle-treated) group using one-tailed Mann Whitney U tests. In statistics, the Mann-Whitney U test (also called the Mann-Whitney-Wilcoxon (MWW) or Wilcoxon rank-sum test) is a non-parametric statistical hypothesis test for assessing whether one of two samples of independent observations tends to have larger values than the other. It is one of the most well-known non-parametric significance tests. […] P values given in table 1 are one-tailed since only decreases in locomotion were expected and tested for (Mann, H. B., Whitney, D. R. (1947), “On a Test of Whether one of Two Random Variables is Stochastically Larger than the Other”, Annals of Mathematical Statistics, 18 (1), 50-60).

The subject of assay [2] is behaviors of compound-treated mice. Description: SmartCube behavioral signature, similarity to atypical antipsychotics. As to conditions: for discrimination rate vs Clozapine / discrimination rate vs Olanzapine / discrimination rate vs Risperidone: SmartCube, i.p. 15 minutes before test, 0.70 or lower = similar; for SmartCube signature: i.p., mice, classification by similarity to drug classes. It counts as in vivo. The text has this:
In addition to the reversal of L-687,414 induced hyperlocomotion experiment as described above, some compounds of the present invention have been tested in SmartCube®, an automated system in which the behaviors of compound-treated mice in response to multiple challenges are captured by digital video and analyzed with computer algorithms (Roberds et al., Frontiers in Neuroscience, 2011, Vol. 5, Art. 103, 1-4). In this way, the neuro-pharmacological effects of a test compound can be predicted by similarity to major classes of compounds, such as antipsychotics, anxiolytics and antidepressants.
SmartCube® was used to compare the behavioral signature of a test compound to a database of behavioral signatures obtained from a large set of clinically approved reference drugs, grouped per indications. In this way, the neuro-pharmacological effects of a test compound can be predicted by similarity to major classes of compounds, such as antipsychotics, anxiolytics and antidepressants. This approach is ideally suited to screen collections of existing drugs or drug candidates with previously unknown neuropharmacology, which could expedite the development of new and unexpected treatments for psychiatric disorders.
Some compounds of the present invention were injected i.p. at different doses 15 minutes before the test. At least 8 mice were used in each treatment group. Digital videos of the subjects were processed with computer vision algorithms to extract over 2000 dependent measures including frequency and duration of many different behavioral states. The results of the classifications are presented as bar charts for each dose (mg/kg), the Y-axis indicates the relative probability that the test compound will show efficacy in the specific CNS indication.
For comparison, the behavioral signature of the atypical antipsychotic risperidone is shown in FIG. 3 (for behavioral signatures of further atypical antipsychotic, e.g. clozapine, olanzapine, see also Roberds et al., Frontiers in Neuroscience, 2011, Vol. 5, Art. 103, 1-4). Compounds of the present invention show similar signatures to those of atypical antipsychotics. An independent analysis was performed on the unclassified data to determine the similarity of the example compounds to active doses of known atypical antipsychotics. For this analysis, we use discrimination rate as the measure of separability between the two drugs, i.e. one drug's “distinguishability” from another. A rate equal to 50% (or 0.5) corresponds to zero distinguishability. […] In most cases, the example compounds show a similarity to risperidone, clozapine and olanzapine with a discrimination rate of ≦0.70.

Entries after “also recorded” stand apart in the source; their conditions may differ.

In turn, `CN1C(=O)C(C)(C)c2ccc(NC(=O)c3ccncc3F)cc21` [Example 29, 3-Fluoro-N-(1,3,3-trimethyl-2-oxoindolin-6-yl)isonicotinamide] gave an ID50 po in assay [1] of 1.08 mg/kg. In assay [2], the “discrimination rate vs Clozapine” value is on record as 0.63, the “discrimination rate vs Olanzapine” value amounted to 0.58, the “discrimination rate vs Risperidone” value was found to be 0.56 and the SmartCube signature entry is reported as “similarity to atypical antipsychotics; also recorded: profile similar to that of atypical antipsychotics”.
As to `CC1(C)C(=O)N(C2CC2)c2cc(NC(=O)c3ccncc3Cl)ccc21` [Example 30, 3-Chloro-N-(1-cyclopropyl-3,3-dimethyl-2-oxoindolin-6-yl)isonicotinamide], the ID50 po in assay [1] was 0.97 mg/kg. Besides, in assay [2], the “discrimination rate vs Clozapine” value is 0.68, the “discrimination rate vs Olanzapine” value came out at 0.67, the “discrimination rate vs Risperidone” value is 0.72 and the SmartCube signature result is “similarity to atypical antipsychotics; also recorded: profile similar to that of atypical antipsychotics”.
Consider `CC1(C)C(=O)N(C2CC2)c2cc(NC(=O)c3ccnc(Cl)c3)ncc21` [Example 83, 2-Chloro-N-(1-cyclopropyl-3,3-dimethyl-2-oxo-2,3-dihydro-1H-pyrrolo[3,2-c]pyridin-6-yl)isonicotinamide], for which, in assay [1], the “Inhibition, ip” value was 79.6%.
Still for that read-out and setting: the same measure for `CC(C)N1C(=O)C(C)(C)c2ccc(NC(=O)c3cccnc3)cc21` [Example 37, N-(1-Isopropyl-3,3-dimethyl-2-oxoindolin-6-yl)nicotinamide]: 64.0%; for `CC1(C)C(=O)N(C2COC2)c2cc(NC(=O)c3ccncc3F)ccc21` [Example 59]: 88.6%; for `CC1(C)C(=O)N(CC2CC2)c2cc(NC(=O)c3ccncc3F)ccc21` [Example 53, N-(1-(Cyclopropylmethyl)-3,3-dimethyl-2-oxoindolin-6-yl)-3-fluoroisonicotinamide]: 89.9%.
The same measure, in the same setting: the same measure for `Cc1cc(C(=O)Nc2ccc3c(c2)N(C)C(=O)C3(C)C)ccn1` [Example 5, 2-Methyl-N-(1,3,3-trimethyl-2-oxoindolin-6-yl)isonicotinamide]: 77.2%; for `O=C(Nc1ccc2c(c1)N(C1CC1)C(=O)C21CC1)c1ccncc1` [Example 55, N-(1′-Cyclopropyl-2′-oxospiro[cyclopropane-1,3′-indoline]-6′-yl)isonicotinamide]: 61.7%.
For the molecule `CCN1C(=O)C(C)(C)c2ccc(NC(=O)c3cccnc3)cc21` [Example 21, N-(1-Ethyl-3,3-dimethyl-2-oxoindolin-6-yl)nicotinamide], the “Inhibition, ip” value in assay [1] stood at 76.6%.
With `CCN1C(=O)C(C)(C)c2ccc(NC(=O)c3ccncc3Cl)cc21` [Example 40, 3-Chloro-N-(1-ethyl-3,3-dimethyl-2-oxoindolin-6-yl)isonicotinamide], the “Inhibition, ip” value in assay [1] was 72.9%.
The same measure, in the same setting: the same measure for `CCN1C(=O)C(C)(C)c2ccc(NC(=O)c3ccnc(C)c3)cc21` [Example 39, N-(1-Ethyl-3,3-dimethyl-2-oxoindolin-6-yl)-2-methylisonicotinamide]: 58.6%.
As for `CN1C(=O)C(C)(C)c2ccc(NC(=O)c3ccc(F)cc3)cc21` [Example 43, 4-Fluoro-N-(1,3,3-trimethyl-2-oxoindolin-6-yl)benzamide], the “Inhibition, ip” value in assay [1] amounted to 88.0%.
`CN1C(=O)C(C)(C)c2ccc(NC(=O)c3cccnc3)cc21` [Example 4, N-(1,3,3-Trimethyl-2-oxoindolin-6-yl)nicotinamide] came in with an ID50 po in assay [1] of 1.84 mg/kg.
For `CN1C(=O)C(C)(C)c2cc(F)c(NC(=O)c3ccncc3)cc21` [Example 20, N-(5-Fluoro-1,3,3-trimethyl-2-oxoindolin-6-yl)isonicotinamide], in assay [1], the “Inhibition, ip” value is reported as 87.3%.
Same read-out and setting: then `CC1(C)C(=O)N(C2COC2)c2cc(NC(=O)c3ccncc3Cl)ccc21` [Example 62, 3-Chloro-N-(3,3-dimethyl-1-(oxetan-3-yl)-2-oxoindolin-6-yl)isonicotinamide], with 61.7%; and `CC1(C)C(=O)N(CCCOC2CC2)c2cc(NC(=O)c3ccncc3F)ccc21` [Example 65, N-(1-(3-Cyclopropoxypropyl)-3,3-dimethyl-2-oxoindolin-6-yl)-3-fluoroisonicotinamide], with 91.1%.
Same read-out and setting: the same measure for `Cc1ncc(C(=O)Nc2ccc3c(c2)N(C)C(=O)C3(C)C)c(C)n1` [Example 12, 2,4-Dimethyl-N-(1,3,3-trimethyl-2-oxoindolin-6-yl)pyrimidine-5-carboxamide]: 69.2%.
Still for that read-out and setting: then `CC1(C)C(=O)N(CC2CC2)c2cc(NC(=O)c3ccncc3)ccc21` [Example 52, N-(1-(Cyclopropylmethyl)-3,3-dimethyl-2-oxoindolin-6-yl)isonicotinamide], with 78.8%; and `CC1(C)C(=O)N(CC(F)(F)F)c2cc(NC(=O)c3ccncc3F)ccc21` [Example 74, N-(3,3-Dimethyl-2-oxo-1-(2,2,2-trifluoroethyl)indolin-6-yl)-3-fluoroisonicotinamide], with 76.6%; and `CN1C(=O)C(C)(C)c2cc(F)c(NC(=O)c3ccncc3Cl)cc21` [Example 51, 3-Chloro-N-(5-fluoro-1,3,3-trimethyl-2-oxoindolin-6-yl)isonicotinamide], with 80.1%.
`CC1(C)C(=O)N(C2CC2)c2cc(NC(=O)c3ccncc3)ncc21` [Example 79, N-(1-Cyclopropyl-3,3-dimethyl-2-oxo-2,3-dihydro-1H-pyrrolo[3,2-c]pyridin-6-yl)isonicotinamide] showed an ID50 po in assay [1] of 0.94 mg/kg.
